Experimental data published in patent US8859543B2, “Imidazo[1,2-a]pyrazine derivatives and their use for the prevention or treatment of neurological, psychiatric and metabolic disorders and diseases” (Janssen Pharmaceutica NV, priority 2010, dated 2014).

Experiments:
PDE7A = PDE7A (Homo sapiens, UniProt Q13946); assay: In vitro PDE selectivity assay, PDE7A; format: biochemical; conditions: Table 4a in vitro selectivity; read-out: IC50 PDE type 7A
Protocol: (§1) Rat recombinant PDE10A (rPDE10A2) was expressed in Sf9 cells using a recombinant rPDE10A baculovirus construct. Cells were harvested after 48 h of infection and the rPDE10A protein was purified by metal chelate chromatography on Ni-sepharose 6FF. […] The reaction was incubated for 60 min. at RT. […] After sedimentation of the beads during 30 min. the radioactivity was measured in a Perkin Elmer Topcount scintillation counter and results were expressed as cpm. For blank values the enzyme was omitted from the reaction and replaced by incubation buffer. […] The same assay principle is applied for the measurement of the affinity of the compound for other members of the PDE family with appropriate modifications in incubation buffer, substrate concentration, incubation time and stop solution.

[1] = system: SCH-23390-induced hypolocomotion; assay: SCH-23390-induced hypolocomotion in mice; format: in vivo; conditions: Mus musculus; male NMRI mice, pretreated 0.5 h earlier; criterion total distance >2500 counts; read-out: ED50 reversal of SCH-23390-induced hypolocomotion
Protocol: SCH-23390-Induced Hypolocomotion in Mice
SCM-23390 (0.08 mg/kg, i.v.)-induced hypolocomotion was evaluated over a 30-min period starting immediately after the SCH-23390 challenge in male NMRI mice pretreated 0.5 h earlier with test compound or solvent. Averaged activity in solvent-treated control mice was 1540±559 counts (mean±SD; n=103). Criterion for drug-induced reversal of the SCH-23390-induced hypolocomotion: total distance: >2500 counts (2.9% false positives in controls).

[2] = system: PCP-induced hyperlocomotion; assay: PCP-induced hyperlocomotion in rats (PCP); format: in vivo; conditions: Rattus norvegicus
PDE4D = PDE4D (Homo sapiens, UniProt Q08499); assay: In vitro PDE selectivity assay, PDE4D; format: biochemical; conditions: Table 4a in vitro selectivity; read-out: IC50 PDE type 4D
Chain of PDE4D (Q08499 whole entry, species assumed): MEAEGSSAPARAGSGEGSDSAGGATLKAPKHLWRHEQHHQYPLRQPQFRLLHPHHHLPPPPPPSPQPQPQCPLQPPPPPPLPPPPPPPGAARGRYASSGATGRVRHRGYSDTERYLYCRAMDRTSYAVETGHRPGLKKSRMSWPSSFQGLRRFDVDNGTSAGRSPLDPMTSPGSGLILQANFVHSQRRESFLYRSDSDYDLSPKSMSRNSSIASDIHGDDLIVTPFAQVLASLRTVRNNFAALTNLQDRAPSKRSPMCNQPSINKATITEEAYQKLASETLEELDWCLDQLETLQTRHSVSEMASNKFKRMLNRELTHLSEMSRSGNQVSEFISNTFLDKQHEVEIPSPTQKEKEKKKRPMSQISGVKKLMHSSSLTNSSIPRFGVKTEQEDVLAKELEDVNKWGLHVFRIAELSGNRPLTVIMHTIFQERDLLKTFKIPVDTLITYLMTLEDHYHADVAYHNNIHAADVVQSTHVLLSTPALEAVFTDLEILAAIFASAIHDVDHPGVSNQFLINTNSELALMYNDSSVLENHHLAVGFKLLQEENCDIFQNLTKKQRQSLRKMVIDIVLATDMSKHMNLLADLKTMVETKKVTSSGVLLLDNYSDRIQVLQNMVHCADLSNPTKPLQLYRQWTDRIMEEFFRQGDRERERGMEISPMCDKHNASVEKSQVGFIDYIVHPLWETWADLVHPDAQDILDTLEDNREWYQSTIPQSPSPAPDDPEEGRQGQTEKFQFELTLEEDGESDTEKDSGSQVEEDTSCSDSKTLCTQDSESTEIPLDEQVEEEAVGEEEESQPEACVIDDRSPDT
Protocol: as §1

PDE11A = PDE11A (Homo sapiens, UniProt Q9HCR9); assay: In vitro PDE selectivity assay, PDE11A; format: biochemical; conditions: Table 4a in vitro selectivity; read-out: IC50 PDE type 11A
Chain of PDE11A (Q9HCR9 whole entry, species assumed): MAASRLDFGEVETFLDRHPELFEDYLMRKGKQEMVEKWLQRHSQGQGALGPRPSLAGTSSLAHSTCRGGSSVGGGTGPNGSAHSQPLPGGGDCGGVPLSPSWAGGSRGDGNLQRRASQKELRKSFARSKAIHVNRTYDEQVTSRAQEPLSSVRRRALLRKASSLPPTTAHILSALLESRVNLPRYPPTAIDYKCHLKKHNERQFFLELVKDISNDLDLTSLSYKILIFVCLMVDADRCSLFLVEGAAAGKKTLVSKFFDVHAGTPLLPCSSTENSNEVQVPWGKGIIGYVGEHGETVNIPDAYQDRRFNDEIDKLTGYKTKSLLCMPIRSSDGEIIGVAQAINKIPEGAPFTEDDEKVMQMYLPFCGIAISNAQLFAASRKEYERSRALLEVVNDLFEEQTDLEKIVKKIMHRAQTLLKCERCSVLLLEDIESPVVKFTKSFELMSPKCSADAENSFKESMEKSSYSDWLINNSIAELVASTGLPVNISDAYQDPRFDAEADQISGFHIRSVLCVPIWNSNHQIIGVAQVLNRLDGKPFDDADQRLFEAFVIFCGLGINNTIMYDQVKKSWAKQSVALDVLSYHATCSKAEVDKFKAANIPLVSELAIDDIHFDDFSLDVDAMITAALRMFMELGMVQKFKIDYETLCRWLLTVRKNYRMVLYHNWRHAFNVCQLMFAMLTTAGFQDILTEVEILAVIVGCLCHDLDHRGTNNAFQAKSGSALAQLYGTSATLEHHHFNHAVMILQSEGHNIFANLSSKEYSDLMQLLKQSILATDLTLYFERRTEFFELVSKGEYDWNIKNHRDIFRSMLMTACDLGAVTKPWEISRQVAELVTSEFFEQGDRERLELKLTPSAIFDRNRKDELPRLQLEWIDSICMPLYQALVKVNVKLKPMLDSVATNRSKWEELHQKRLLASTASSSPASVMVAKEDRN
Protocol: as §1

PDE6AB = PDE6AB (Homo sapiens, UniProt P16499+P35913); assay: In vitro PDE selectivity assay, PDE6AB; format: biochemical; conditions: Table 4a in vitro selectivity; read-out: IC50 PDE type 6AB
Chain of PDE6AB (P16499 whole entry): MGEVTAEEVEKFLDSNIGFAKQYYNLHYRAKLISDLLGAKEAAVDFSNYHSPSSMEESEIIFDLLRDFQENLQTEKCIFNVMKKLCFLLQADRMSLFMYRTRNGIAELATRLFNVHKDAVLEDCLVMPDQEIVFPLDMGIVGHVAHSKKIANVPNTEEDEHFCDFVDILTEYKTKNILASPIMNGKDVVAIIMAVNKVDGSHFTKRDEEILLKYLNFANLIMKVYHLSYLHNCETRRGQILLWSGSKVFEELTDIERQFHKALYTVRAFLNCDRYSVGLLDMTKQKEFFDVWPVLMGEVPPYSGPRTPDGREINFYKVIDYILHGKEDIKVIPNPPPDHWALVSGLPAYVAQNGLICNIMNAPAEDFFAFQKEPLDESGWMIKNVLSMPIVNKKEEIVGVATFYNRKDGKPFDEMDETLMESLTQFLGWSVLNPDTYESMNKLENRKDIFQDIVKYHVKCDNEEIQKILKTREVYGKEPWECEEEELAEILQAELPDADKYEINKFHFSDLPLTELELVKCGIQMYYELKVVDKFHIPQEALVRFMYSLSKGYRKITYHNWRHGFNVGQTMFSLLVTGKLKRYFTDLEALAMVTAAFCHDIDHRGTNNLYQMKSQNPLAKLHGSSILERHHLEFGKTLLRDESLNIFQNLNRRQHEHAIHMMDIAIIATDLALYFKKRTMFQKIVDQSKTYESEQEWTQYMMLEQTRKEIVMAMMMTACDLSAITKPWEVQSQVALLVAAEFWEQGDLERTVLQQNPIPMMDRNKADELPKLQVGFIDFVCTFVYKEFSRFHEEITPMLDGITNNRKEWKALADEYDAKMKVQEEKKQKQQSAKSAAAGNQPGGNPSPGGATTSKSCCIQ
Chain of PDE6AB (P35913 whole entry): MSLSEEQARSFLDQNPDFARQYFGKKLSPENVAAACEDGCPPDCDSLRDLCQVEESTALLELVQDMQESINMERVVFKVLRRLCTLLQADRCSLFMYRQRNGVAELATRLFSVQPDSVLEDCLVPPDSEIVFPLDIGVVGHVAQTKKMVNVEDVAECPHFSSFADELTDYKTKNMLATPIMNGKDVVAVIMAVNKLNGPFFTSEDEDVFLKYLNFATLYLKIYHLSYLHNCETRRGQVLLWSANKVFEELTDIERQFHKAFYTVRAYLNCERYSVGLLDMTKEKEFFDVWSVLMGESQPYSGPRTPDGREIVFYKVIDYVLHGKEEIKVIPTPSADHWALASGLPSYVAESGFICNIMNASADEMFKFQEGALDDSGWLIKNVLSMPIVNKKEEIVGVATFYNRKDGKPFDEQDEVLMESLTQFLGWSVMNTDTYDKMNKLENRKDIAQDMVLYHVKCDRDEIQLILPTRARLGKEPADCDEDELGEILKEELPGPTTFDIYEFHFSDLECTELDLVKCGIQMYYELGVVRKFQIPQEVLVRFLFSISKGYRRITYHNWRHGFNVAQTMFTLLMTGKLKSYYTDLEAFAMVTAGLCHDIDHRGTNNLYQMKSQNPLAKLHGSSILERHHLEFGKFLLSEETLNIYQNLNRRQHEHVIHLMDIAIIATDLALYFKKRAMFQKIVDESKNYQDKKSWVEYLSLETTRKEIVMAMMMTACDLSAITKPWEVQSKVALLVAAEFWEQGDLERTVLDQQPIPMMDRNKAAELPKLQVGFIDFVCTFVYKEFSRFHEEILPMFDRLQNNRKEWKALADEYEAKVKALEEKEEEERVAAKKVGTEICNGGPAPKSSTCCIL
Protocol: as §1

[3] = system: conditioned avoidance response; assay: Conditioned avoidance response (CAR) test; format: in vivo; conditions: Rattus norvegicus
Excerpt: Conditioned Avoidance Response (CAR) Test
The apparatus consisted of an inner box surrounded by an outer box. The inner box was composed of four walls of transparent, synthetic material (length×width×height: 30×30×30 cm), an open top, and a grid floor made of 15 pairs of iron bars (2 mm diameter; 6 mm inter-bar distance). Odd and even bars were connected with a source of alternative current (1.0 mA; Coulbourn Instruments Solid State Shocker/Distributor), which could be interrupted by a switch. The outer box was composed of the same material (length×width×height: 40×40×36 cm), also with an open top, with a distance of 5 cm between the inner and outer box on all sides. To decrease the amount of environmental stimuli, three walls of the outer box were made non-transparent. The front wall was left transparent to allow the necessary inspection of the animal during the test. The upper edge of the outer and inner box served as a target for the rats on which to jump with fore- and hind-paws, respectively.
From their arrival in the laboratory on the experimental day, male Wiga Wistar rats (230±30 g) were housed in individual cages provided with bedding material.
The rats were tested 3 times, i.e. at 60, 90 and 120 min after the injection of test compound or solvent. Latency to avoidance was recorded. The median avoidance response obtained over the three experimental sessions for each rat were used for further calculations.

[4] = system: apomorphine-induced stereotypy; assay: Apomorphine-induced stereotypy in rats (APO); format: in vivo; conditions: Rattus norvegicus, read-out: APO ED50
Protocol: Apomorphine-Induced Stereotypy in Rats (APO)
Apomorphine (1.0 mg/kg, i.v.)-induced stereotypy (compulsive sniffing, licking, chewing) was scored every 5 min. over the first hour after injection of apomorphine, following a 1 hour interval pre-treatment with the test compound. The score system was: (3) pronounced, (2) moderate, (1) slight, and (O) absent.

Chain of PDE7A (Q13946 whole entry, species assumed): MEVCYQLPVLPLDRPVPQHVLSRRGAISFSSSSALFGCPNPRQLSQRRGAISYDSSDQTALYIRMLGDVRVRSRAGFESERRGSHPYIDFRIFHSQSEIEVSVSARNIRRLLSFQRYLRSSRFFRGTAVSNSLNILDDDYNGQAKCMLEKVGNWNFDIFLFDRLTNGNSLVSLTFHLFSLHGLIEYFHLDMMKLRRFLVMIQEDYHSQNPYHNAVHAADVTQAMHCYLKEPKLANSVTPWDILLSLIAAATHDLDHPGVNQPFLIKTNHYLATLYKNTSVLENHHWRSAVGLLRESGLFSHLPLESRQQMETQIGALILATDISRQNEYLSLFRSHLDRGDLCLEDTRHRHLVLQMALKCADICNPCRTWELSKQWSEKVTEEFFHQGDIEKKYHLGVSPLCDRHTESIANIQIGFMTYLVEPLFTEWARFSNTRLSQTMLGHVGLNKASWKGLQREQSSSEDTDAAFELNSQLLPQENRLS

Compound Cc1nc2c(N3CCOCC3)nccn2c1-c1ccc(C2CCOCC2)nc1 [compound 25, 2-Methyl-8-morpholin-4-yl-3-[6-(tetrahydro-pyran-4-yl)-pyridin-3-yl]-imidazo[1,2-a]pyrazine] has an IC50 (PDE7A) of over 100 µM, an ED50 [1] of 7.1 mg/kg and an ED50 [2] of 2 mg/kg. It also gave an IC50 (PDE4D) of 58.9 µM, an IC50 (PDE11A) of 66.1 µM and an IC50 (PDE6AB) of 96.5 µM. For the same compound, the ED50 [3] was 4.1 mg/kg and the ED50 [4] was 1.2 mg/kg.
